Test results: patent US20230136702A1, “Inhibitors of Human Herpesviruses” (The Governors of the University of Alberta, priority 2020, published 2023)
Structures can show the parent of a compound that is named as a salt. Where two headings read alike, the source gives them in different places.

Columns and labels:
[1] = molecular target: T1, HCMV DNA polymerase (UL54) (Human cytomegalovirus, UniProt P08546); assay: HCMV DNA polymerase enzyme inhibition assay (ProFoldin, fluorescence); assay type: biochemical; details: 37° C., duplicate, max 40 μM
T1 construct: 6His (C); made in house; host or cells: Sf9 insect cells (baculovirus, pFastBac)
T1 sequence (P08546 whole entry): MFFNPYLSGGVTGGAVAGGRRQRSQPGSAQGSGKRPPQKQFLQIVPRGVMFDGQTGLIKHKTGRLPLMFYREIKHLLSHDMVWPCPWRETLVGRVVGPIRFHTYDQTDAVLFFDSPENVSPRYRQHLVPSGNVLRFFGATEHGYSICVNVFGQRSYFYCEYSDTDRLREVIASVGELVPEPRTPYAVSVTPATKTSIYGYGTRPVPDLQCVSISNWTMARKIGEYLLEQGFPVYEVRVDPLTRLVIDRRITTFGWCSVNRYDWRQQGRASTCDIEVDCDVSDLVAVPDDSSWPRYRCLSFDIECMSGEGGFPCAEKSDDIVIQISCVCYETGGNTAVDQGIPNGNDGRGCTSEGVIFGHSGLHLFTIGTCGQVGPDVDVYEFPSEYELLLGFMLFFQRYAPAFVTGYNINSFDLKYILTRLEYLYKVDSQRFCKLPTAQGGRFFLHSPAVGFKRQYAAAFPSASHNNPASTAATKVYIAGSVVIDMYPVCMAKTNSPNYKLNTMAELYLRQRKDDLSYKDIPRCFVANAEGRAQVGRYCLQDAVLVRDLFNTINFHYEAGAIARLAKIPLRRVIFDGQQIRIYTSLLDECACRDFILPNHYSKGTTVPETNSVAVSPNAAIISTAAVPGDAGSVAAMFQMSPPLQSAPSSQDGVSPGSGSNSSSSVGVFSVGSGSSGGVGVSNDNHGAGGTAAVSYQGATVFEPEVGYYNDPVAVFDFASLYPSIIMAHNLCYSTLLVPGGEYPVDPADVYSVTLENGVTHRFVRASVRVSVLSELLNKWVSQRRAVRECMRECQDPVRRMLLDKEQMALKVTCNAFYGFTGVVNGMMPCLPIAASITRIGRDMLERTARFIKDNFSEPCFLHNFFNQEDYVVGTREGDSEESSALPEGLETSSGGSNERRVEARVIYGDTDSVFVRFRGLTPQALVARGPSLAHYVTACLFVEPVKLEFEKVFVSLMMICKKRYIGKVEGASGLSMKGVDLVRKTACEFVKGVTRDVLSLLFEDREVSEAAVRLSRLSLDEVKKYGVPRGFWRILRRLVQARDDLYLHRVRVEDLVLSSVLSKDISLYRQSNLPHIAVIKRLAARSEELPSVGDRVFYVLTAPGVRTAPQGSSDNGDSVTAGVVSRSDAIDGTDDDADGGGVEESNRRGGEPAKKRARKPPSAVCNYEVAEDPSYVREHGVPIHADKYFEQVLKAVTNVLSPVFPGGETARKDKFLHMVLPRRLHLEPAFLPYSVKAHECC

[2] = system: HCMV US3-6-EGFP-HCMV-AD169 strain; assay: In vitro inhibitory (antiviral) activity against HCMV, GFP reporter in MRC5 cells; assay type: cell-based, Human cytomegalovirus (HCMV); details: Human betaherpesvirus 5, AD169, MRC5, 96 h, read-out: HCMV Antiviral EC50 range
Protocol: (§1) Exemplary compounds (e.g., as described herein) were prepared as 20 mM stock solutions with DMSO. Reference compound was ganciclovir (Sigma). Compounds were tested at 8 concentrations, 3-fold serial dilutions, in duplicate for EC50 and CC50 determinations. The highest testing concentrations of the exemplary compounds and reference compound were 40 μM and 100 μM, respectively. The final concentration of DMSO in the cell culture was 0.5%.
HCMV US3-6-EGFP-HCMV-AD169 strain was obtained from Institute Pasteur of Shanghai, CAS. The virus contains GFP as a reporter of the viral replication.
(§2) MRC5 cells (ATCC CCL-171) was obtained from the ATCC and maintained in the EMEM (Sigma) supplemented with 10% FBS (HyClone), 1% L-glutamine (Gibco), 1% NEAA (Gibco), and 1% PS (Hyclone). Reagent:
In 96-well plates, MRC5 cells were seeded at 20,000 cells per well and cultured at 37° C. and 5% C02 overnight. Next day, compounds (8 concentrations, 3-fold dilutions, in duplicate) and US3-6-EGFP-HCMV-AD169 (MOI=0.1) were added to the cells. The resulting cultures were incubated at 37° C. and 5% C02 for 4 days. Fluorescence intensity was determined by Acumen Cellista (TTP LabTech). The antiviral activity of each compound was calculated based on the inhibition of expression of GFP at each concentration normalized by the cell control (cells without virus infection or compound treatment).
(§3) Antiviral activity and cytotoxicity of the compounds were expressed as % Inhibition and % Viability, respectively, and calculated with the formulas below:
Inhibition (%)=100−(Raw dataCPD−AverageCC)/(AverageVC−AverageCC)*100
(§4) Raw dataCPD indicates the values of the compound-treated wells; AverageVC, AverageCC and AverageMC indicate the average values of the virus control (cells infected with virus, without compound treatment), cell control and medium control wells, respectively.
(§5) EC50 and CC50 values were calculated using the GraphPad Prism software.

[3] = Cytotoxicity in MRC5 cells without virus infection (CCK8); assay type: cell-based; details: human
Protocol: as §1, §2
Cytotoxicity of the compounds was assessed under the same conditions, but without virus infection, in parallel. Cell viability was measured with CCK8 following the manufacturer's manual. CC50 values were then calculated based on cytotoxicity at the test concentrations normalized by the medium control (medium only).
as §3
Viability (%)=(Raw dataCPD−AverageMC)/(AverageCC−AverageMC)*100
as §4, §5

[4] = molecular target: T2, hERG potassium channel (Homo sapiens, UniProt Q12809); assay: Inhibition of hERG potassium channel, automated patch clamp (SyncroPatch 384PE) in CHO cells; assay type: cell-based
T2 construct: host or cells: CHO cells stably expressing hERG
T2 sequence (Q12809 whole entry): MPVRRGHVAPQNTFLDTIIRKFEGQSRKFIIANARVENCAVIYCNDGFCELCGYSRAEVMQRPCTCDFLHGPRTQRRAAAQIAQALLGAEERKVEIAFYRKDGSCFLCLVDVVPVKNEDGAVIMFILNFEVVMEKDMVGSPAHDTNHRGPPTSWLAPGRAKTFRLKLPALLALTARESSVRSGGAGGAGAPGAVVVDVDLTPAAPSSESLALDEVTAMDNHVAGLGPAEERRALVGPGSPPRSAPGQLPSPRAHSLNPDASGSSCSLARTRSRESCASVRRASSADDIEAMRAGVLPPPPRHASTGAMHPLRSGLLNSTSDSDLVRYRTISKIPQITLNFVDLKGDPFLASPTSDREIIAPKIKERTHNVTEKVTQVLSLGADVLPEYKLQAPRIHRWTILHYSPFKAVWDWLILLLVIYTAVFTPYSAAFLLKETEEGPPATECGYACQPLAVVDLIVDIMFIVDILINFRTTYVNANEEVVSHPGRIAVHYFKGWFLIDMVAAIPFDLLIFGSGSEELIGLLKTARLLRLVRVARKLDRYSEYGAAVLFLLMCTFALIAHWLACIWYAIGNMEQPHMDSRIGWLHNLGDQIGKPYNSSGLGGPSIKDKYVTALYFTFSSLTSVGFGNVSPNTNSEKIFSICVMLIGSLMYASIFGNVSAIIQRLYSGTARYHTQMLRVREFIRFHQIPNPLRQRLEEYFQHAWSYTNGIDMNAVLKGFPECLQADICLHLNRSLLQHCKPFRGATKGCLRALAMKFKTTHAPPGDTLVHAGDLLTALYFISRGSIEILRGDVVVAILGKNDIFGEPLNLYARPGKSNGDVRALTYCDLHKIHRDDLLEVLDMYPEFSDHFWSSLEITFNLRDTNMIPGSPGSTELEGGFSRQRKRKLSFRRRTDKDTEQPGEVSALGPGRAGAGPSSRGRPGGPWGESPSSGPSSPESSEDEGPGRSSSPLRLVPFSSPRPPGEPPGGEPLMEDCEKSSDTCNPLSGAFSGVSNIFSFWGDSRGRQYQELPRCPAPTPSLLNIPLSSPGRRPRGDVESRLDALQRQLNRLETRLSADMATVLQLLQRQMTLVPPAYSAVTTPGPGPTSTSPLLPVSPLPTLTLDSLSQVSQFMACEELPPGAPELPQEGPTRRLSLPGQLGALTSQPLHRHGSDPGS
Protocol: This automated patch clamp method (SyncroPatch 384PE) CHO cells stably expressing hERG potassium channels from Sophion Biosciences were used for this test.
The cells were cultured in a humidified and air-controlled (5% C02) incubator at 37° C.
The CHO cells which were at least two days after plating and more than 75% confluent would be used for experiments. Before testing, cells were harvested using TrypLE and resuspended in the physiological solution at the room temperature.
For the electrophysiological recordings the following solutions were used (Table 5). The physiological solution and external solution were prepared at least one month. The intracellular solution was prepared in batches aliquoted, and stored at 4° C. until used.
Exemplary compounds (e.g., as described herein) were dissolved in 100% DMSO to obtain stock solutions for different test concentrations. Then the stock solutions were further diluted into external solution to achieve final concentrations for testing. Visual check for precipitation was conducted before testing. Final DMSO concentration in external solution was not more than 0.30% for the compounds.
From this holding potential of −80 mV, the voltage was first stepped to −50 mV for 80 ms for leak subtraction, and then stepped to +20 mV for 4800 ms to open hERG channels. After that, the voltage was stepped back down to −50 mV for 5000 ms, causing a “rebound” or tail current, which was measured and collected for data analysis. Finally, the voltage was stepped back to the holding potential (−80 mV, 1000 ms). This voltage command protocol was repeated every 20000 msec. This command protocol was performed continuously during the test (vehicle control and test compound).
hERG SyncroPatch assay was conducted at room temperature. The Setup, Prime Chip, Catch and Seal Cells, Amplifier Settings, Voltage and Application Protocols were established with Biomek Software (Nanion).
One addition of 40 μL of the vehicle was applied, followed by 300s for a baseline period. Then the doses of exemplary test compounds were added with 40 μL. The exposure of test compound at each concentration was no less than 300s. […] Five concentrations (0.494 μM, 1.48 μM, 4.44 μM, 13.33 μM and 40.00 μM) were tested for each compound. Minimum 2 replicates per concentration were obtained.
Within each well recording, percent of control values were calculated for each test compound concentration current response based on peak current in presence of reference control (current response/peak current)×100%. The Dose-Response curves were fit to the standard Hill equation as shown below:
Ipost cpd/Ipre cpd=Bottom+(Top−Bottom)/(1+10^((Log IC50−X)*HillSlope))
Where X is the logarithm of concentration, Ipost cpd/Ipre cpd is the normalized peak current amplitude, Top is 1 and Bottom is equal to 0.
Curve-fitting and IC50 calculations were performed by GraphPad Prism 5.0. If the inhibition obtained at the lowest concentration tested was over 50%, or at the highest concentration tested was less than 50%, we reported the IC50 as less than lowest concentration, or higher than highest concentration, respectively.

[5] = CHO cells stably expressing hERG, room temperature, 0.494-40.00 μM, read-out: CHO-hERG Activity Range

SMILES | IC50 [1] [µM] | EC50 [2] [µM] | CC50 at 4 days [3] [µM] | IC50 [4] [µM] | CC50 at 4 days ([3]; MRC5 cells, 4 days, CCK8, highest concentration 40 μM, read-out: MCR5 CC50) [µM] | IC50 [4, 5] [µM]
NCCN1CCN(c2cnc3c(cc(C(=O)NCc4ccc(Cl)cc4)c(=O)n3CC(=O)N3CC4(CC4)C3)n2)C1=O [Compound 36, 2-[3-(2-aminoethyl)-2-oxoimidazolidin-1-yl]-5-[2-(5-azaspiro[2.3]hexan-5-yl)-2-oxoethyl]-N-[(4-chlorophenyl)methyl]-6-oxo-5,6-dihydropyrido[2,3-b]pyrazine-7-carboxamide] | < 1 | < 1 | 18 | > 10 |  | 
CC(C)[C@H](N)C(=O)NCCN1CCN(c2cnc3c(cc(C(=O)NCc4ccc(Cl)cc4)c(=O)n3CC(=O)N3CC(C)(F)C3)n2)C1=O [Compound 37, N-[(4-chlorophenyl)methyl]-5-[2-(3-fluoro-3-methylazetidin-1-yl)-2-oxoethyl]-6-oxo-2-{2-oxo-3-[2-(L-valylamino)ethyl]imidazolidin-1-yl}-5,6-dihydropyrido[2,3-b]pyrazine-7-carboxamide-hydrochloride salt] | > 1 | < 1 |  |  | > 40 | > 10
CC1(F)CN(C(=O)Cn2c(=O)c(C(=O)NCc3ccc(Cl)cc3)cc3nc(N4CCN(CC(N)=O)C4=O)cnc32)C1 [Compound 40, 2-[3-(2-amino-2-oxoethyl)-2-oxoimidazolidin-1-yl]-N-[(4-chlorophenyl)methyl]-5-[2-(3-fluoro-3-methylazetidin-1-yl)-2-oxoethyl]-6-oxo-5,6-dihydropyrido[2,3-b]pyrazine-7-carboxamide] | < 1 | > 1 | > 40 |  |  | > 10
CC1(F)CN(C(=O)Cn2c(=O)c(C(=O)NCc3ccc(Cl)cc3)cc3nc(N4CC(=O)NC4=O)cnc32)C1 [Compound 41, N-[(4-chlorophenyl)methyl]-2-(2,4-dioxoimidazolidin-1-yl)-5-[2-(3-fluoro-3-methylazetidin-1-yl)-2-oxoethyl]-6-oxo-5,6-dihydropyrido[2,3-b]pyrazine-7-carboxamide] | < 1 | > 1 | 23 |  |  | > 10
CN(C)CCN1CCN(c2cnc3c(cc(C(=O)NCc4ccc(Cl)cc4)c(=O)n3CC(=O)N3CC(C)(F)C3)n2)C1=O [Compound 42, N-[(4-chlorophenyl)methyl]-2-{3-[2-(dimethylamino)ethyl]-2-oxoimidazolidin-1-yl}-5-[2-(3-fluoro-3-methylazetidin-1-yl)-2-oxoethyl]-6-oxo-5,6-dihydropyrido[2,3-b]pyrazine-7-carboxamide] | > 1 | < 1 | > 40 |  |  | > 10
CC1(C)CN(C(=O)Cn2c(=O)c(C(=O)NCc3ccc(Cl)cc3)cc3nc(N4CCN(C(C)(C)C(=O)O)C4=O)cnc32)C1 [Compound 43, 2-[3-(7-{[(4-chlorophenyl)methyl]carbamoyl}-5-[2-(3,3-dimethylazetidin-1-yl)-2-oxoethyl]-6-oxo-5,6-dihydropyrido[2,3-b]pyrazin-2-yl)-2-oxoimidazolidin-1-yl]-2-methylpropanoic acid] | < 1 | < 1 | > 40 |  |  | > 10
CC(C)(C(=O)O)N1CCN(c2cnc3c(cc(C(=O)NCc4ccc(Cl)cc4)c(=O)n3CC(=O)N3CC4(CC4)C3)n2)C1=O [Compound 44, 2-[3-(5-[2-(5-azaspiro[2.3]hexan-5-yl)-2-oxoethyl]-7-{[(4-chlorophenyl)methyl]carbamoyl}-6-oxo-5,6-dihydropyrido[2,3-b]pyrazin-2-yl)-2-oxoimidazolidin-1-yl]-2-methylpropanoic acid] | < 1 | < 1 | > 40 | > 10 |  | 
CC1(C)CN(C(=O)Cn2c(=O)c(C(=O)NCc3ccc(Cl)cc3)cc3cc(N4CCN(C(C)(C)C(=O)O)C4=O)cnc32)C1 [Compound 45, 2-(3-(6-{[(4-chlorophenyl)methyl]carbamoyl}-8-(2-(3,3-dimethylazetidin-1-yl)-2-oxoethyl)-7-oxo-7,8-dihydro-1,8-naphthyridin-3-yl)-2-oxoimidazolidin-1-yl)-2-methylpropanoic acid] | < 1 | < 1 | > 40 |  |  | > 10
CC(C(=O)O)N1CCN(c2cnc3c(cc(C(=O)NCc4ccc(Cl)cc4)c(=O)n3CC(=O)N3CC(C)(C)C3)n2)C1=O (stereo not drawn) [Compound 46, 2-[3-(7-{[(4-chlorophenyl)methyl]carbamoyl}-5-[2-(3,3-dimethylazetidin-1-yl)-2-oxoethyl]-6-oxo-5,6-dihydropyrido[2,3-b]pyrazin-2-yl)-2-oxoimidazolidin-1-yl]propanoic acid] | < 1 | < 1 | > 40 |  |  | > 10
